The source of these data is patent US8937092B2, “Aryl or N-heteroaryl substituted methanesulfonamide derivatives as vanilloid receptor ligands” (Gruenenthal GmbH, priority 2011, dated 2015).

One assay concerns the target vanilloid receptor 1 (VR1/TRPV1 receptor) (Homo sapiens, UniProt Q8NER1). Nature of the assay: Functional FLIPR Ca2+ influx assay on vanilloid receptor 1, capsaicin (Cap) stimulus. The assay is classed as cell-based. As to conditions: Ki from IC50 by Cheng-Prusoff, read-out: (f) Ki (human being) [nM], Cap. The essentials:
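Antagonism of Ca2+ influx stimulated by capsaicin (100 nM) in CHO K1 cells transfected with human VR1, read with Fluo-4 dye in a FLIPR; value is concentration giving 50% displacement of capsaicin. Rat VR1 variant uses cultured rat dorsal root ganglion neurons in NGF-containing medium.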
For orientation: Ki means a measure of affinity in units of concentration, obtained from inhibition or displacement. On to `CC(C(=O)NCc1ccc(C(F)(F)F)nc1-c1cncc(Cl)c1)c1ccc(CNS(C)(=O)=O)c(F)c1` (centres unmarked) [Example 73, N-((5′-chloro-6-(trifluoromethyl)-2,3′-bipyridin-3-yl)methyl)-2-(3-fluoro-4-(methylsulfonamidomethyl)phenyl)propanamide], for which the inhibition constant Ki is 24 nM. With `Cc1cccc(-c2nc(C(F)(F)F)ccc2CNC(=O)C(C)c2ccc(CNS(C)(=O)=O)c(Cl)c2)c1` (centres unmarked) [Example 77, 2-(3-chloro-4-(methylsulfonamidomethyl)phenyl)-N-((2-m-tolyl-6-(trifluoromethyl)pyridin-3-yl)methyl)propanamide], the inhibition constant (Ki) was 3 nM. The same measure, in the same setting: the result for `COc1cc(C(C)C(=O)NCc2ccc(C(F)(F)F)nc2-c2cccc(C)c2)ccc1CNS(C)(=O)=O` (centres unmarked) [Example 78, 2-(3-methoxy-4-(methylsulfonamidomethyl)phenyl)-N-((2-m-tolyl-6-(trifluoromethyl)pyridin-3-yl)methyl)propanamide] reads 73 nM; that for `COc1cc(NC(=O)NCc2ccc(C(F)(F)F)nc2-c2cccc(C)c2)ccc1CNS(C)(=O)=O` [Example 80, N-(2-methoxy-4-(3-((2-m-tolyl-6-(trifluoromethyl)pyridin-3-yl)methyl)ureido)benzyl)methanesulfonamide], 68 nM. Consider `Cc1cccc(-c2nc(C(F)(F)F)ccc2CNC(=O)Nc2ccc(CNS(C)(=O)=O)c(C)c2)c1` [Example 81, N-(2-methyl-4-(3-((2-m-tolyl-6-(trifluoromethyl)pyridin-3-yl)methyl)ureido)benzyl)methanesulfonamide], for which the Ki amounted to 7 nM. Same read-out and setting: the result for `CCS(=O)(=O)NCc1ccc(NC(=O)NCc2ccc(C(F)(F)F)nc2-c2cccc(C)c2)cc1` [Example 82, N-(4-(3-((2-m-tolyl-6-(trifluoromethyl)pyridin-3-yl)methyl)ureido)benzyl)ethanesulfonamide] reads 23 nM; that for `CCS(=O)(=O)NCc1ccc(C(C)C(=O)NCc2ccc(C(F)(F)F)nc2-c2cccc(C)c2)cc1F` (centres unmarked) [Example 83, 2-(4-(ethylsulfonamidomethyl)-3-fluorophenyl)-N-((2-m-tolyl-6-(trifluoromethyl)pyridin-3-yl)methyl)propanamide], 74 nM. `Cc1cccc(-c2nc(C(F)(F)F)ccc2CNC(=O)Nc2ccc(CNS(N)(=O)=O)cc2)c1` [Example 84, 1-{[2-m-tolyll-6-(trifluoromethyl)pyridin-3-yl]methyl}-3-{4-[(sulfamoylamino)methyl]phenyl}urea]: the Ki was determined as 9 nM.

As to `Cc1cccc(-c2nc(C(F)(F)F)ccc2CNC(=O)C(C)c2ccc(CNS(N)(=O)=O)c(F)c2)c1` (centres unmarked) [Example 85, 2-(3-fluoro-4-((sulfamoylamino)methyl)phenyl)-N-((2-m-tolyl-6-(trifluoromethyl)pyridin-3-yl)methyl)propanamide], the Ki is 3 nM.

`Cc1cccc(-c2nc(C(F)(F)F)ccc2CNC(=O)Nc2ccc(CNS(N)(=O)=O)c(F)c2)c1` [Example 86, 1-{3-fluoro-4-[(sulfamoylamino)methyl]phenyl}-3-{[2-m-tolyl-6-(trifluoromethyl)pyridin-3-yl]methyl}urea]: the Ki was 6 nM. The same measure, in the same setting: the result for `Cc1cccc(-c2nc(C(F)(F)F)ccc2CNC(=O)C(C)c2ccc(CNS(N)(=O)=O)cc2)c1` (centres unmarked) [Example 88, 2-(4-((sulfamoylamino)methyl)phenyl)-N-((2-m-tolyl-6-(trifluoromethyl)pyridin-3-yl)methyl)propanamide] reads 7 nM.

The same assay, now with this note: inhibition at 1 μM.
Regarding “N-((2-(2-ethoxy-5-methylphenyl)-6-(trifluoromethyl)pyridin-3-yl)methyl)-2-(3-fluoro-4-(methylsulfonamidomethyl)phenyl)propanamide [Example 48]”, the “(f) inhibition (human being), Cap, @1 μM” value is listed as 15%@1 μM.

Staying with this assay, now noted: inhibition at 5 μM, read-out: (f) inhibition (human being), Cap, @5 μM.
The term inhibition denotes the drop in the measured response relative to a control, in per cent. `Cc1ncccc1-c1nc(C(F)(F)F)ccc1CNC(=O)C(C)c1ccc(CNS(C)(=O)=O)c(F)c1` (centres unmarked) [Example 71, 2-(3-fluoro-4-(methylsulfonamidomethyl)phenyl)-N-((2′-methyl-6-(trifluoromethyl)-2,3′-bipyridin-3-yl)methyl)propanamide]: the inhibition at 5 µM stood at 19%. The same measure, in the same setting: the result for `Cc1ccc(-c2nc(C(F)(F)F)ccc2CNC(=O)C(C)c2ccc(CNS(C)(=O)=O)c(F)c2)cn1` (centres unmarked) [Example 72, 2-(3-fluoro-4-(methylsulfonamidomethyl)phenyl)-N-((6′-methyl-6-(trifluoromethyl)-2,3′-bipyridin-3-yl)methyl)propanamide] reads 27%.
